Data published in publication PMC5218480 (PLoS ONE, 2017).

Test system: MV-4-11 cells
Test: Gene expression microarray analysis (Affymetrix PrimeView) and GSEA
Format: cell-based, human
Parameters: RFU PODN (11730768_x_at) / Fold change /veh PODN (11730768_x_at) / RFU LINC00158 (11744669_a_at) / Fold change /veh LINC00158 (11744669_a_at) / RFU DUSP10 (11751237_a_at) / Fold change /veh DUSP10 (11751237_a_at) / RFU ID3 (11757404_x_at) / Fold change /veh ID3 (11757404_x_at) / RFU PLEKHG5 (11737974_s_at) / Fold change /veh PLEKHG5 (11737974_s_at) / RFU LRRC4B (11730491_at) / Fold change /veh LRRC4B (11730491_at) / RFU GIMAP4 (11747438_a_at) / Fold change /veh GIMAP4 (11747438_a_at) / RFU KRT8 (11758183_x_at) / Fold change /veh KRT8 (11758183_x_at) / RFU CNN1 (11734310_a_at) / Fold change /veh CNN1 (11734310_a_at) / RFU VPS37D (11726825_at) / Fold change /veh VPS37D (11726825_at) / RFU C10orf10 (11716522_x_at) / Fold change /veh C10orf10 (11716522_x_at) / RFU KIR2DL2 /// KIR2DL4 /// KIR2DL5A /// KIR2DL5B /// KIR2DS1 /// KIR2DS2 /// KIR2DS3 /// KIR2DS4 /// KIR3DL3 /// KIR3DL3 /// KIR3DS1 (11738374_at) / Fold change /veh KIR2DL2 /// KIR2DL4 /// KIR2DL5A /// KIR2DL5B /// KIR2DS1 /// KIR2DS2 /// KIR2DS3 /// KIR2DS4 /// KIR3DL3 /// KIR3DL3 /// KIR3DS1 (11738374_at) / RFU C1QL1 (11718748_at) / Fold change /veh C1QL1 (11718748_at) / RFU TMPRSS4 (11747572_a_at) / Fold change /veh TMPRSS4 (11747572_a_at) / RFU HAMP (11756126_x_at) / Fold change /veh HAMP (11756126_x_at) / RFU RNFT2 (11725882_a_at) / Fold change /veh RNFT2 (11725882_a_at) / RFU NR4A2 (11747474_a_at) / Fold change /veh NR4A2 (11747474_a_at) / RFU ABCC12 (11746883_a_at) / Fold change /veh ABCC12 (11746883_a_at) / RFU TMEM136 (11760407_x_at) / Fold change /veh TMEM136 (11760407_x_at) / RFU CLDN22 /// WWC2 (11732394_at) / Fold change /veh CLDN22 /// WWC2 (11732394_at) / RFU HLA-DPB1 (11760878_x_at) / Fold change /veh HLA-DPB1 (11760878_x_at) / RFU SPINT1 (11716480_a_at) / Fold change /veh SPINT1 (11716480_a_at) / RFU GAP43 (11754022_s_at) / Fold change /veh GAP43 (11754022_s_at) / RFU A4GNT (11735810_at) / Fold change /veh A4GNT (11735810_at) / RFU PRB3 (11715151_x_at) / Fold change /veh PRB3 (11715151_x_at) / RFU TUBB4B (11761932_at) / Fold change /veh TUBB4B (11761932_at) / RFU CAPN14 (11732068_a_at) / Fold change /veh CAPN14 (11732068_a_at) / RFU TMCC2 (11721928_a_at) / Fold change /veh TMCC2 (11721928_a_at) / RFU IRGQ (11745062_a_at) / Fold change /veh IRGQ (11745062_a_at) / RFU FAM174B (11720279_a_at) / Fold change /veh FAM174B (11720279_a_at) / RFU TMPRSS4 (11748680_a_at) / Fold change /veh TMPRSS4 (11748680_a_at) / RFU FAM212B (11763350_a_at) / Fold change /veh FAM212B (11763350_a_at) / RFU PLEKHG5 (11743358_a_at) / Fold change /veh PLEKHG5 (11743358_a_at) / RFU ZSCAN30 (11745921_a_at) / Fold change /veh ZSCAN30 (11745921_a_at) / RFU CMKLR1 (11741424_a_at) / Fold change /veh CMKLR1 (11741424_a_at) / RFU LOC101060620 /// MAPK8IP1 (11723275_at) / Fold change /veh LOC101060620 /// MAPK8IP1 (11723275_at) / RFU SPTSSB (11747773_x_at) / Fold change /veh SPTSSB (11747773_x_at) / RFU PRSS12 (11739890_at) / Fold change /veh PRSS12 (11739890_at) / RFU BIN1 (11741810_x_at) / Fold change /veh BIN1 (11741810_x_at) / RFU WNT11 (11732464_a_at) / Fold change /veh WNT11 (11732464_a_at) / RFU C10orf10 (11716521_a_at) / Fold change /veh C10orf10 (11716521_a_at) / RFU C5orf56 (11738089_at) / Fold change /veh C5orf56 (11738089_at) / RFU CYB561 (11721691_x_at) / Fold change /veh CYB561 (11721691_x_at) / RFU ANKRD19P (11752326_a_at) / Fold change /veh ANKRD19P (11752326_a_at) / RFU OR2T12 /// OR2T33 /// OR2T8 (11738714_s_at) / Fold change /veh OR2T12 /// OR2T33 /// OR2T8 (11738714_s_at) / RFU VCAN (11748164_a_at) / Fold change /veh VCAN (11748164_a_at) / RFU JSRP1 (11732532_at) / Fold change /veh JSRP1 (11732532_at) / RFU KRTAP10-11 (11738290_x_at) / Fold change /veh KRTAP10-11 (11738290_x_at) / RFU MYO3A (11730013_a_at) / Fold change /veh MYO3A (11730013_a_at) / RFU EBF3 (11725865_a_at) / Fold change /veh EBF3 (11725865_a_at) / RFU CAMK2N1 (11719241_x_at) / Fold change /veh CAMK2N1 (11719241_x_at) / RFU C5orf56 (11738088_a_at) / Fold change /veh C5orf56 (11738088_a_at) / RFU OLFML3 (11715873_a_at) / Fold change /veh OLFML3 (11715873_a_at) / RFU LOC100653217 /// NTM (11731650_a_at) / Fold change /veh LOC100653217 /// NTM (11731650_a_at) / RFU MAPK11 (11762145_a_at) / Fold change /veh MAPK11 (11762145_a_at) / RFU FIZ1 (11724087_x_at) / Fold change /veh FIZ1 (11724087_x_at) / RFU OASL (11726364_x_at) / Fold change /veh OASL (11726364_x_at) / RFU SOX15 (11748057_x_at) / Fold change /veh SOX15 (11748057_x_at) / RFU CD79A (11719716_a_at) / Fold change /veh CD79A (11719716_a_at) / RFU HIST1H1D (11736915_at) / Fold change /veh HIST1H1D (11736915_at) / RFU CASKIN2 (11723855_a_at) / Fold change /veh CASKIN2 (11723855_a_at) / RFU LOC730098 (11760151_x_at) / Fold change /veh LOC730098 (11760151_x_at) / RFU OR4N2 (11742367_at) / Fold change /veh OR4N2 (11742367_at) / RFU PRRT2 (11749266_a_at) / Fold change /veh PRRT2 (11749266_a_at) / RFU SNX32 (11753110_a_at) / Fold change /veh SNX32 (11753110_a_at) / RFU CDHR5 (11726645_a_at) / Fold change /veh CDHR5 (11726645_a_at) / RFU RCAN1 (11760418_a_at) / Fold change /veh RCAN1 (11760418_a_at) / RFU FAM167A (11723789_a_at) / Fold change /veh FAM167A (11723789_a_at) / RFU FAM26E (11764081_at) / Fold change /veh FAM26E (11764081_at) / RFU ISYNA1 (11749810_s_at) / Fold change /veh ISYNA1 (11749810_s_at) / RFU ACY1 (11761880_at) / Fold change /veh ACY1 (11761880_at) / RFU 11764098_at / Fold change /veh 11764098_at / RFU SAMD14 (11745864_x_at) / Fold change /veh SAMD14 (11745864_x_at) / RFU NPB (11741838_a_at) / Fold change /veh NPB (11741838_a_at) / RFU TMPRSS6 (11731388_a_at) / Fold change /veh TMPRSS6 (11731388_a_at) / RFU KRTAP10-2 (11738614_at) / Fold change /veh KRTAP10-2 (11738614_at) / RFU ARHGAP8 /// PRR5-ARHGAP8 (11727945_x_at) / Fold change /veh ARHGAP8 /// PRR5-ARHGAP8 (11727945_x_at) / RFU KRTAP5-7 /// NADSYN1 (11734609_at) / Fold change /veh KRTAP5-7 /// NADSYN1 (11734609_at) / RFU RASL12 (11751679_a_at) / Fold change /veh RASL12 (11751679_a_at) / RFU CDKN2B (11736163_a_at) / Fold change /veh CDKN2B (11736163_a_at) / RFU PRF1 (11729649_at) / Fold change /veh PRF1 (11729649_at) / RFU, ZNF638 /// ZNF638-IT1 / Fold change vs veh, ZNF638 /// ZNF638-IT1 / RFU, PANK3 / Fold change vs veh, PANK3 / RFU, SH3YL1 / Fold change vs veh, SH3YL1 / RFU, ZEB2 / Fold change vs veh, ZEB2 / RFU, NRIP1 / Fold change vs veh, NRIP1 / RFU, PTTG1IP / Fold change vs veh, PTTG1IP / RFU, CAPN2 / Fold change vs veh, CAPN2 / RFU, MED14 / Fold change vs veh, MED14 / RFU, SNORA58 / Fold change vs veh, SNORA58 / RFU, C1orf63 / Fold change vs veh, C1orf63 / RFU, LRRFIP1 / Fold change vs veh, LRRFIP1 / RFU, NDUFAF7 / Fold change vs veh, NDUFAF7 / RFU, SLC12A2 / Fold change vs veh, SLC12A2 / RFU, IBTK / Fold change vs veh, IBTK / RFU, ESF1 / Fold change vs veh, ESF1 / Fold change vs veh, TMEM50B / RFU, TAOK1 / Fold change vs veh, TAOK1 / RFU, ACBD3 / Fold change vs veh, ACBD3 / RFU, TMA16 / Fold change vs veh, TMA16 / RFU, RWDD3 / Fold change vs veh, RWDD3 / RFU, BCAT1 / Fold change vs veh, BCAT1 / RFU, EDEM3 / Fold change vs veh, EDEM3 / RFU, TMEM33 / Fold change vs veh, TMEM33 / RFU, WDR75 / Fold change vs veh, WDR75 / RFU, AHCTF1 / Fold change vs veh, AHCTF1 / RFU, TFRC / Fold change vs veh, TFRC / RFU, ZDHHC17 / Fold change vs veh, ZDHHC17 / RFU, NOM1 / Fold change vs veh, NOM1 / RFU, ARL8B / Fold change vs veh, ARL8B / RFU, ZBTB11 / Fold change vs veh, ZBTB11 / RFU, TAMM41 / Fold change vs veh, TAMM41 / RFU, KIAA1704 /// LOC100996395 / Fold change vs veh, KIAA1704 /// LOC100996395 / RFU, ING1 / Fold change vs veh, ING1 / RFU, TRMT61B / Fold change vs veh, TRMT61B / RFU, FUBP3 / Fold change vs veh, FUBP3 / RFU, TP53 / Fold change vs veh, TP53 / RFU, TNKS2 / Fold change vs veh, TNKS2 / RFU, ZFP14 / Fold change vs veh, ZFP14 / RFU, ACTR2 / Fold change vs veh, ACTR2 / RFU, PPP3R1 / Fold change vs veh, PPP3R1 / RFU, PIK3R1 / Fold change vs veh, PIK3R1 / RFU, HNRNPA1 / Fold change vs veh, HNRNPA1 / RFU, RNF170 / Fold change vs veh, RNF170 / RFU, ZNF28 / Fold change vs veh, ZNF28 / RFU, RNGTT / Fold change vs veh, RNGTT / RFU, OGT / Fold change vs veh, OGT / RFU, BRD1 / Fold change vs veh, BRD1 / RFU, MARS / Fold change vs veh, MARS / RFU, ZNF655 / Fold change vs veh, ZNF655 / RFU, FAHD1 / Fold change vs veh, FAHD1 / RFU, BDP1 / Fold change vs veh, BDP1 / RFU, LRRCC1 / Fold change vs veh, LRRCC1 / RFU, ARID1A / Fold change vs veh, ARID1A / RFU, ZNF146 / Fold change vs veh, ZNF146 / RFU, ZNF330 / Fold change vs veh, ZNF330 / RFU, GPN3 / Fold change vs veh, GPN3 / RFU, C9orf123 / Fold change vs veh, C9orf123 / RFU, N4BP2L2 / Fold change vs veh, N4BP2L2 / RFU, ARFIP1 / Fold change vs veh, ARFIP1 / RFU, FAM179B / Fold change vs veh, FAM179B / RFU, BCL10 / Fold change vs veh, BCL10 / RFU, UHRF1BP1L / Fold change vs veh, UHRF1BP1L / RFU, BET1 / Fold change vs veh, BET1 / RFU, CNOT2 / Fold change vs veh, CNOT2 / RFU, ZNF268 / Fold change vs veh, ZNF268 / Fold change vs veh, ZNF507 / RFU, DGCR2 / Fold change vs veh, DGCR2 / RFU, WDSUB1 / Fold change vs veh, WDSUB1 / Fold change vs veh, HSP90B1 /// MIR3652 / RFU, ADSS / Fold change vs veh, ADSS / RFU, GK / Fold change vs veh, GK / RFU, ZNF148 / Fold change vs veh, ZNF148 / RFU, TAF9 / Fold change vs veh, TAF9 / RFU, SLC1A5 / Fold change vs veh, SLC1A5 / RFU, SLMO2 / Fold change vs veh, SLMO2 / RFU, ABCC4 / Fold change vs veh, ABCC4 / RFU, LOC101060439 /// RAP1B / Fold change vs veh, LOC101060439 /// RAP1B / RFU, RFX7 / Fold change vs veh, RFX7 / RFU, GTPBP10 / Fold change vs veh, GTPBP10 / RFU, CNEP1R1 / Fold change vs veh, CNEP1R1 / RFU, BIVM-ERCC5 /// ERCC5 / Fold change vs veh, BIVM-ERCC5 /// ERCC5 / RFU, ILF3 / Fold change vs veh, ILF3 / RFU 11762660_at / Fold change /veh 11762660_at / RFU VCAN (11757783_s_at) / Fold change /veh VCAN (11757783_s_at) / RFU DDX43 (11728927_at) / Fold change /veh DDX43 (11728927_at) / RFU KRT8 (11758188_x_at) / Fold change /veh KRT8 (11758188_x_at) / RFU NKD1 (11759106_at) / Fold change /veh NKD1 (11759106_at) / RFU SRD5A1 (11742802_a_at) / Fold change /veh SRD5A1 (11742802_a_at) / RFU TPSAB1 /// TPSB2 (11721975_s_at) / Fold change /veh TPSAB1 /// TPSB2 (11721975_s_at) / RFU GSTM3 (11746129_a_at) / Fold change /veh GSTM3 (11746129_a_at) / RFU IL23R (11737362_x_at) / Fold change /veh IL23R (11737362_x_at) / RFU TMEM51 (11727254_a_at) / Fold change /veh TMEM51 (11727254_a_at) / RFU PIWIL2 (11732686_x_at) / Fold change /veh PIWIL2 (11732686_x_at) / RFU ORM1 (11744905_x_at) / Fold change /veh ORM1 (11744905_x_at) / RFU CCDC152 (11743942_at) / Fold change /veh CCDC152 (11743942_at) / RFU ECM1 (11717891_a_at) / Fold change /veh ECM1 (11717891_a_at) / RFU IL23R (11748794_a_at) / Fold change /veh IL23R (11748794_a_at) / RFU TNFAIP8L3 (11732012_x_at) / Fold change /veh TNFAIP8L3 (11732012_x_at) / RFU MBOAT4 (11741988_at) / Fold change /veh MBOAT4 (11741988_at) / RFU 11764193_at / Fold change /veh 11764193_at / RFU TMEM53 (11763286_at) / Fold change /veh TMEM53 (11763286_at) / RFU MAGEB2 (11727129_at) / Fold change /veh MAGEB2 (11727129_at) / RFU TMEM200A (11744735_a_at) / Fold change /veh TMEM200A (11744735_a_at) / RFU CCDC152 (11751479_a_at) / Fold change /veh CCDC152 (11751479_a_at) / RFU FAM211A (11726209_a_at) / Fold change /veh FAM211A (11726209_a_at) / RFU RGS16 (11746705_a_at) / Fold change /veh RGS16 (11746705_a_at) / RFU VCAN (11755009_s_at) / Fold change /veh VCAN (11755009_s_at) / RFU RHOB (11743442_s_at) / Fold change /veh RHOB (11743442_s_at) / RFU RGS16 (11720943_a_at) / Fold change /veh RGS16 (11720943_a_at) / RFU RGS16 (11720944_at) / Fold change /veh RGS16 (11720944_at) / RFU, VPS4B / Fold change vs veh, VPS4B / RFU, CREB1 / Fold change vs veh, CREB1 / RFU, DNAJC13 / Fold change vs veh, DNAJC13 / RFU, GNAQ / Fold change vs veh, GNAQ / RFU, CDK5R1 / Fold change vs veh, CDK5R1 / RFU, ZRANB3 / Fold change vs veh, ZRANB3 / RFU, CUL4A / Fold change vs veh, CUL4A / RFU, CCNY / Fold change vs veh, CCNY / RFU, UFL1 / Fold change vs veh, UFL1 / RFU, COG3 / Fold change vs veh, COG3 / RFU, DIAPH2 / Fold change vs veh, DIAPH2 / RFU, SKA2 / Fold change vs veh, SKA2 / RFU, AFF3 / Fold change vs veh, AFF3 / RFU, LMF1 / Fold change vs veh, LMF1 / RFU, IPO11 / Fold change vs veh, IPO11 / RFU, DFFB / Fold change vs veh, DFFB / RFU, FOXP1 / Fold change vs veh, FOXP1 / RFU, CARD8 / Fold change vs veh, CARD8 / RFU, STRN3 / Fold change vs veh, STRN3 / RFU, ADK / Fold change vs veh, ADK / RFU, RASSF2 / Fold change vs veh, RASSF2 / RFU, WIPF1 / Fold change vs veh, WIPF1 / RFU, LARP1B / Fold change vs veh, LARP1B / RFU, RASA1 / Fold change vs veh, RASA1 / RFU, RB1 / Fold change vs veh, RB1 / RFU, PPFIA1 / Fold change vs veh, PPFIA1 / RFU, MAT2A / Fold change vs veh, MAT2A / RFU, CCT5 / Fold change vs veh, CCT5 / RFU, WDR92 / Fold change vs veh, WDR92 / RFU, CUX1 / Fold change vs veh, CUX1 / RFU, TTC7A / Fold change vs veh, TTC7A / RFU, TMEM135 / Fold change vs veh, TMEM135 / RFU, DEPTOR / Fold change vs veh, DEPTOR / RFU, CPM / Fold change vs veh, CPM / RFU, DNAJB6 / Fold change vs veh, DNAJB6 / RFU, CACNA2D3 / Fold change vs veh, CACNA2D3 / RFU, DTX4 / Fold change vs veh, DTX4 / RFU, TFCP2 / Fold change vs veh, TFCP2 / RFU, GMCL1 /// GMCL1P1 / Fold change vs veh, GMCL1 /// GMCL1P1 / RFU, AEBP2 / Fold change vs veh, AEBP2 / RFU, SNHG1 /// SNORD22 /// SNORD25 /// SNORD26 /// SNORD27 /// SNORD28 /// SNORD29 /// SNORD31 / Fold change vs veh, SNHG1 /// SNORD22 /// SNORD25 /// SNORD26 /// SNORD27 /// SNORD28 /// SNORD29 /// SNORD31 / Fold change (Aza/veh), C12orf56 (ProbeSet 11735607_a_at) / Fold change (ACY-1035/veh), C12orf56 (ProbeSet 11735607_a_at) / Fold change (Aza/veh), FGFR1OP (ProbeSet 11751329_s_at) / Fold change (ACY-1035/veh), FGFR1OP (ProbeSet 11751329_s_at) / Fold change (Aza/veh), VPS36 (ProbeSet 11739960_a_at) / Fold change (ACY-1035/veh), VPS36 (ProbeSet 11739960_a_at) / RFU SYPL1 (11715823_x_at) / Fold change /veh SYPL1 (11715823_x_at) / RFU IGFBP7 (11715501_s_at) / Fold change /veh IGFBP7 (11715501_s_at) / RFU REEP3 (11722064_at) / Fold change /veh REEP3 (11722064_at) / RFU IGLL1 (11728026_x_at) / Fold change /veh IGLL1 (11728026_x_at): dose or concentration left out as unconfirmed
Conditions: MV-4-11 cells, 48 hours

Nc1ccc(-c2cccs2)cc1NC(=O)c1ccc2c(c1)cc(C1CC1)n2CCN1CCOCC1 [ACY-1035]
RFU ABCC12 (11746883_a_at): 8.23 RFU
